# From patent US20080260716A1, “Method and Composition for High Level Disinfection Employing Quaternary Ammonium Compounds” (priority 2004, published 2008)
# Like-named read-outs stand apart in the source and are kept apart here.
# How the values were obtained:
# B. subtilis spores = experiment: AOAC sporicidal test, kill time; type: cell-based; details: for B. subtilis (no kill): 48 hrs
# [1] = system: Mycobacterium terrae, B. subtilis, C. sporogens; design: key: satisfies the FDA requirement for high level disinfection (“HLD”); fails to do so (“F”)
# [2] = Table 3 Prior art, 0.25% QUAT, 25° C.
# [3] = Table 6 unnumbered test, 2% QUAT + 0.2% Protease (Savinase 16 L), 25° C. + 1% borax
# [4] = test 3.4, 0.25% QUAT, 62° C. + ultrasound
# [5] = test 4.1, 2% QUAT, 25° C. + 1% borax
# [6] = test 4.2, 5% QUAT, 25° C. + 1% borax
# [7] = test 4.3, 1% QUAT, 40° C. + 1% borax
# [8] = test 4.4, 2% QUAT, 40° C. + 1% borax
# [9] = test 4.5, 5% QUAT, 40° C. + 1% borax
# [10] = test 4.6, 2% QUAT, 50° C. + 1% borax
# [11] = test 4.7, 5% QUAT, 50° C. + 1% borax
# [12] = test 5.2, 2% QUAT, 40° C. + ultrasound 10 min each hour
# [13] = test 5.3, 5% QUAT, 40° C. + ultrasound 10 min each hour
# [14] = test 5.4, 1% QUAT, 40° C. + ultrasound 10 min each hour
# [15] = test 5.5, 2% QUAT + 1% borax, 40° C. + ultrasound 10 min each hour
# [16] = test 5.6, 5% QUAT + 1% borax, 40° C. + ultrasound 10 min each hour
# [17] = test 5.7, 2% QUAT + 1% borax + Protease, 40° C. + ultrasound 10 min each hour
# [18] = test 6.1, 2% QUAT + 0.2% Protease (Savinase 16 L), 25° C.
# [19] = test 6.2, 2% QUAT + 0.2% Protease (Savinase 16 L), 40° C.
# [20] = test 6.3, 2% QUAT + 0.2% Protease (Savinase 16 L), 40° C. + 1% borax
# [21] = test 6.4, 2% QUAT + 0.2% Protease (Savinase 16 L), 50° C.
# [22] = test 6.5, 2% QUAT + 0.2% Protease (Savinase 16 L), 50° C. + 1% borax
# [23] = test 6.6, 2% QUAT + 0.2% Protease (Savinase 16 L), 40° C. + ultrasound 10 min each hour + 1% borax
# [24] = test 6.7, 2% QUAT + 1% borax + Protease, 40° C. + ultrasound 10 min each hour
substance,measurement,setting,value
benzalkonium chloride [QUAT],Kill Time B. subtilis,B. subtilis spores; [2],>24 h
same,Kill Time B. subtilis,B. subtilis spores; [3],>48 h
same,B. subtilis (no kill),B. subtilis spores; [3],(no kill) (“No kill” means less than 2 log reduction from the initial population)
same,kill time of B. subtilis,"B. subtilis spores; above 1% w/w of quat, 40° C.",less than 2 hours
same,Kill Time B. subtilis,"B. subtilis spores; test 1.1, 0.025% QUAT, 25° C.",>24 h
same,Kill Time B. subtilis,"B. subtilis spores; test 1.2, 0.25% QUAT, 25° C.",>24 h
same,Kill Time B. subtilis,"B. subtilis spores; test 2.1, 5% QUAT, 30° C.",<2 h
same,Kill Time B. subtilis,"B. subtilis spores; test 2.2, 1.0% QUAT, 40° C.",<2 h
same,Kill Time B. subtilis,"B. subtilis spores; test 2.3, 2.0% QUAT, 40° C.",<2 h
same,Kill Time B. subtilis,"B. subtilis spores; test 2.4, 5.0% QUAT, 40° C.",<1 h
same,Kill Time B. subtilis,"B. subtilis spores; test 2.5, 1.0% QUAT, 50° C.",<1 h
same,Kill Time B. subtilis,"B. subtilis spores; test 2.6, 2.0% QUAT, 50° C.",<1 h
same,Kill Time B. subtilis,"B. subtilis spores; test 2.7, 5.0% QUAT, 50° C.",<1 h
same,Kill Time B. subtilis,"B. subtilis spores; test 2.7, 5.0% QUAT, 50° C., listed as quat",less than one hour
same,Kill Time B. subtilis,"B. subtilis spores; test 2.8, 1.0% QUAT, 80° C.",<1 h
same,Kill Time B. subtilis,"B. subtilis spores; test 2.8, 1.0% QUAT, 80° C., listed as quat",less than one hour
same,Kill Time B. subtilis,"B. subtilis spores; test 3.1, 0.25% QUAT, 40° C.",>24 h
same,Kill Time B. subtilis,"B. subtilis spores; test 3.2, 0.25% QUAT, 50° C.",>24 h
same,Kill Time B. subtilis,"B. subtilis spores; test 3.3, 0.25% QUAT, 60° C.",>24 h
same,Kill Time B. subtilis,B. subtilis spores; [4],>24 h
same,Kill Time B. subtilis,"B. subtilis spores; test 3.5, 1.0% QUAT, 25° C.",>48 h
same,B. subtilis (no kill),"B. subtilis spores; test 3.5, 1.0% QUAT, 25° C.",(no kill) (“No kill” means less than 2 log reduction from the initial population)
same,Kill Time B. subtilis,"B. subtilis spores; test 3.6, 2.0% QUAT, 25° C.",>48 h
same,B. subtilis (no kill),"B. subtilis spores; test 3.6, 2.0% QUAT, 25° C.",(no kill) (“No kill” means less than 2 log reduction from the initial population)
same,Kill Time B. subtilis,"B. subtilis spores; test 3.7, 5.0% QUAT, 25° C.",>48 h
same,B. subtilis (no kill),"B. subtilis spores; test 3.7, 5.0% QUAT, 25° C.",(no kill) (“No kill” means less than 2 log reduction from the initial population)
same,Kill Time B. subtilis,"B. subtilis spores; test 3.8, 0.6%, 40° C.",>24 h
same,Kill Time B. subtilis,"B. subtilis spores; test 3.9, 0.6% QUAT, 50° C.",<16 h
same,Kill Time B. subtilis,B. subtilis spores; [5],>48 h
same,B. subtilis (no kill),B. subtilis spores; [5],(no kill) (“No kill” means less than 2 log reduction from the initial population)
same,Kill Time B. subtilis,B. subtilis spores; [6],>48 h
same,B. subtilis (no kill),B. subtilis spores; [6],(no kill) (“No kill” means less than 2 log reduction from the initial population)
same,Kill Time B. subtilis,B. subtilis spores; [7],<1 h
same,Kill Time B. subtilis,B. subtilis spores; [8],<1 h
same,Kill Time B. subtilis,B. subtilis spores; [9],<1 h
same,Kill Time B. subtilis,B. subtilis spores; [10],<1 h
same,Kill Time B. subtilis,B. subtilis spores; [11],<1 h
same,Kill Time B. subtilis,"B. subtilis spores; test 5.1, 1% QUAT, 40° C. + ultrasound 10 min each hour",<2 h
same,Kill Time B. subtilis,B. subtilis spores; [12],<1 h
same,Kill Time B. subtilis,B. subtilis spores; [13],<1 h
same,Kill Time B. subtilis,B. subtilis spores; [14],<1 h
same,Kill Time B. subtilis,B. subtilis spores; [15],<1 h
same,Kill Time B. subtilis,B. subtilis spores; [16],<1 h
same,Kill Time B. subtilis,B. subtilis spores; [17],<1 h
same,Kill Time B. subtilis,B. subtilis spores; [18],>48 h
same,B. subtilis (no kill),B. subtilis spores; [18],(no kill) (“No kill” means less than 2 log reduction from the initial population)
same,Kill Time B. subtilis,B. subtilis spores; [19],<2 h
same,Kill Time B. subtilis,B. subtilis spores; [20],<1 h
same,Kill Time B. subtilis,B. subtilis spores; [21],<1 h
same,Kill Time B. subtilis,B. subtilis spores; [22],<1 h
same,Kill Time B. subtilis,B. subtilis spores; [23],<1 h
same,Kill Time B. subtilis,B. subtilis spores; [24],<1 h
same,HLD Or F,[1]; [2],F
same,HLD Or F,[1]; [3],F
same,HLD or F,"[1]; test 1.1, 0.025% QUAT, 25° C.",F
same,HLD or F,"[1]; test 1.2, 0.25% QUAT, 25° C.",F
same,HLD or F,"[1]; test 2.1, 5% QUAT, 30° C.",HLD
same,HLD or F,"[1]; test 2.2, 1.0% QUAT, 40° C.",HLD
same,HLD or F,"[1]; test 2.3, 2.0% QUAT, 40° C.",HLD
same,HLD or F,"[1]; test 2.4, 5.0% QUAT, 40° C.",HLD
same,HLD or F,"[1]; test 2.5, 1.0% QUAT, 50° C.",HLD
same,HLD or F,"[1]; test 2.6, 2.0% QUAT, 50° C.",HLD
same,HLD or F,"[1]; test 2.7, 5.0% QUAT, 50° C.",HLD
same,HLD or F,"[1]; test 2.8, 1.0% QUAT, 80° C.",HLD
same,HLD Or F,"[1]; test 3.1, 0.25% QUAT, 40° C.",F
same,HLD Or F,"[1]; test 3.2, 0.25% QUAT, 50° C.",F
same,HLD Or F,"[1]; test 3.3, 0.25% QUAT, 60° C.",F
same,HLD Or F,[1]; [4],F
same,HLD Or F,"[1]; test 3.5, 1.0% QUAT, 25° C.",F
same,HLD Or F,"[1]; test 3.6, 2.0% QUAT, 25° C.",F
same,HLD Or F,"[1]; test 3.7, 5.0% QUAT, 25° C.",F
same,HLD Or F,"[1]; test 3.8, 0.6%, 40° C.",F
same,HLD Or F,"[1]; test 3.9, 0.6% QUAT, 50° C.",F
same,HLD or F,[1]; [5],F
same,HLD or F,[1]; [6],F
same,HLD or F,[1]; [7],HLD
same,HLD or F,[1]; [8],HLD
same,HLD or F,[1]; [9],HLD
same,HLD or F,[1]; [10],HLD
same,HLD or F,[1]; [11],HLD
same,HLD Or F,[1]; [12],HLD
same,HLD Or F,[1]; [13],HLD
same,HLD Or F,[1]; [14],HLD
same,HLD Or F,[1]; [15],HLD
same,HLD Or F,[1]; [16],HLD
same,HLD Or F,[1]; [17],HLD
same,HLD Or F,[1]; [18],F
same,HLD Or F,[1]; [19],HLD
same,HLD Or F,[1]; [20],HLD
same,HLD Or F,[1]; [21],HLD
same,HLD Or F,[1]; [22],HLD
same,HLD Or F,[1]; [23],HLD
same,HLD Or F,[1]; [24],HLD
